Measured values reported in PubChem BioAssay (NCI).
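96-well plates; 48 h exposure; 5 concentrations. Endpoints by linear interpolation between flanking doses. Not reached: highest tested concentration assigned. TGI denotes the concentration required for complete inhibition of growth.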 *1 amine or outer side, *2 acyl side, *3 side chain or, on linkers, in order; H or OH if unused. Where a SMILES comes first, the peptide text is derived from it. Bridges are numbered along the chain shown (N, C = ends). [ ]: non-standard residue; d: D form. ξ: configuration not given here. X35 = CC[C@H](C)[C@@H](N[*:1])[C@@H](O)CC(=O)O[C@H](C(=O)[C@H](C)C(=O)[*:2])C(C)C; NMeY = CN[C@@H](Cc1ccc(O)cc1)C(=O)O; dNMeL = CN[C@H](CC(C)C)C(=O)O; ξΔPro = O=C(O)C1C=CCN1

Assays:
Test in all cases: NCI tumour cell line growth inhibition, 48 h
U251 CNS = test system: U251 CNS
HCT-15 colon = test system: HCT-15 colon
MOLT-4 leukemia = test system: MOLT-4 leukemia
PC-3 prostate = test system: PC-3 prostate
UO-31 renal = test system: UO-31 renal
OVCAR-4 ovarian = test system: OVCAR-4 ovarian
M14 melanoma = test system: M14 melanoma
SK-MEL-28 melanoma = test system: SK-MEL-28 melanoma
A549 NSCLC = test system: A549 NSCLC
OVCAR-3 ovarian = test system: OVCAR-3 ovarian

Row | Compound | TGI (U251 CNS) | TGI (HCT-15 colon) | TGI (MOLT-4 leukemia) | TGI (PC-3 prostate) | TGI (UO-31 renal) | TGI (OVCAR-4 ovarian) | TGI (M14 melanoma) | TGI (SK-MEL-28 melanoma) | TGI (A549 NSCLC) | TGI (OVCAR-3 ovarian)
1 | CCN(CCCl)c1cccc(NC(=O)c2ccc(C(=O)Nc3cccc(CN(C)C)c3)cc2)c1 | 4.08 µM | 6.58 µM | 1.15 µM | 1.02 µM | 1.81 µM | 0.611 µM | 0.86 µM | 0.68 µM | 12.2 µM | 
2 | CCN(CC)C1Oc2cc3c(cc2C(c2cc(OC)c(OC)c(OC)c2)C1C)OCO3 (stereo not given) | 6.89 µM | 13.3 µM | 13.1 µM | > 57.4 µM | > 46.7 µM | > 100 µM | > 37.9 µM | 34.3 µM | > 46.8 µM | 5.79 µM
3 | COC1(OC)C=CC(=O)C=C1 | 4.9 µM | 16.9 µM | > 95.2 µM | 13.9 µM | 4.22 µM | 16.7 µM | 11.5 µM | 4.16 µM | 21.3 µM | 12.4 µM
4 | Cn1ccc2c(c1=O)C(=O)OC2(C)C | > 100 µM | > 100 µM | > 100 µM | > 100 µM | > 100 µM | > 100 µM | > 100 µM | > 100 µM | > 100 µM | > 100 µM
5 | O=c1nc2ccc3sc4ccccc4c(=O)c3n2c(=O)[nH]1 | > 100 µM | > 100 µM | > 100 µM | > 100 µM | > 100 µM | > 100 µM |  | > 100 µM | > 100 µM | > 100 µM
6 | COc1cc2oc(-c3ccc4c(c3)OCO4)c(OC)c(=O)c2c(O)c1OC | > 50 µM | > 50 µM | > 50 µM | > 50 µM | > 50 µM | > 50 µM | > 50 µM | > 50 µM | > 50 µM | > 50 µM
7 | C=C(CCOC)CCC1CCCCC(=C)[C@H]1O (stereo not given in full) | > 100 µM | > 100 µM | > 100 µM | > 100 µM | > 100 µM | > 100 µM | > 100 µM | > 100 µM | > 100 µM | > 100 µM
8 | COC(=O)/C=C1\C(=O)C=C2[C@@H]3C[C@H]4C[C@H](CC[C@@]4(C)N21)C3(C)NC(C)=O (stereo not given in full) | > 56.9 µM | > 52.7 µM | 34.3 µM | 31.4 µM | > 52.4 µM | 44 µM | 26.4 µM | 11.2 µM | > 57.4 µM | 29 µM
9 | NC(=S)N/N=C1\CCCC1C(O)(C(F)(F)Cl)C(F)(F)Cl (stereo not given) | > 10 µM | > 10 µM | > 10 µM | > 10 µM |  | > 10 µM | > 10 µM | > 10 µM | > 10 µM | > 10 µM
10 | CC(C#N)N(CCc1ccccc1)C(=O)c1ccccc1 (stereo not given) | > 100 µM | > 100 µM | > 100 µM | > 100 µM | > 100 µM | > 100 µM | > 100 µM |  | > 100 µM | > 100 µM
11 | CC[C@H](C)[C@H]1NC(=O)[C@@H](NC(=O)[C@@H](CC(C)C)N(C)C(=O)C2C=CCN2)[C@@H](C)OC(=O)[C@H](Cc2ccc(OC)cc2)N(C)C(=O)[C@@H]2CCCN2C(=O)[C@H](CC(C)C)NC(=O)[C@@H](C)C(=O)[C@H](C(C)C)OC(=O)C[C@@H]1O (stereo not given in full) (H-[ξΔPro][dNMeL]T[X35]LP[NMeY](Me); ester 3-C) | 0.738 µM | 1.78 µM | > 50 µM | 1.06 µM | 0.303 µM | < 0.005 µM | 0.111 µM | < 0.005 µM | > 50 µM | 
